For one data set, the system named is plants. The conditions noted are these: Ruhland et al. (2002); cited from earlier work.
A short description of data set [1]: Hygroscopicity of solid L-glufosinate forms in contact with ambient air. In kind it is physicochemical. The conditions noted are these: contact with ambient air in the laboratory; compared with non-crystalline forms. The text has this: L-glufosinate produced in a stable solid form is highly desirable for commercial manufacture. Some forms of solid L-glufosinate are hygroscopic, and therefore extra measures must be taken to eliminate contact between these solid L-glufosinate forms and water vapor. […] Several crystalline forms of L-glufosinate are disclosed in WO 2019/018406, and two of these forms (indicated as “Form A” and “Form B”) have now been identified as monohydrate crystals of L-glufosinate ammonium.

Data set [2] can be described thus: Particle size measurement (Dv90, volumetric distribution). Format: physicochemical. From the text: The size range of crystalline L-glufosinate ammonium monohydrate particles obtained by using the methods provided herein is convenient for use in formulations. In some embodiments, the crystals are mixed with water and other formulation ingredients to form an herbicidal product. In some embodiments, 90% of the crystalline L-glufosinate ammonium particles are less than about 350 microns as determined by volumetric distribution measurement basis (i.e., “Dv90”). For example, the Dv90 of the particles can be less than about 350 microns or less than about 300 microns or less than about 250 microns or less than about 200 microns or less than about 150 microns or less than about 125 microns or less than about 100 microns or less than about 75 microns or less than about 50 microns or less than about 25 microns. […]
L-glufosinate ammonium starting material (50 g, 77% total L-glufosinate ammonium, 7.3% ammonium glutamate) was added to 35.0 g of 45:55 (w:w) methanol:water. […] The crystals were analyzed by X-ray powder diffraction and the resulting pattern was consistent with that of L-glufosinate ammonium monohydrate Form B, however several peaks consistent with L-glufosinate ammonium monohydrate Form A were present.

Data set [3] has as its system glutamine synthetase enzyme in plants. The conditions noted are these: leads to plant death; cited from earlier work.
The nature of data set [4]: DAAO enzyme kinetics assay (HRP/TBHBA/4-AAP dye, Michaelis Menten, Vmax). In kind it is biochemical. The conditions noted are these: 30° C., 460 nm, measurement at 15 minutes, final DAAO 5 μg/mL, racemic glufosinate substrate, pH 8.0 potassium phosphate buffer.
Method: The following dye stock solutions were prepared: a 20 mg/mL stock solution of 2,4,6-tribromo-3-hydroxybenzoic acid (TBHBA) in DMSO; and a 100 mg/mL stock solution of 4-aminoantipyrine (4-AAP) in water. The following enzyme stock solution was prepared: a 1 mg/mL stock solution of horseradish peroxide (HRP) type 6 in a pH 8.0 potassium phosphate buffer. The following substrate stock solution was prepared: varying concentrations of racemic glufosinate in a pH 8.0 potassium phosphate buffer such that the initial reaction concentrations of racemic glufosinate were 0, 1, 10, 100, 250, and 500 nM. DAAO enzymes were made in E. coli which were lysed and the cell free extracts freeze dried. Enzyme amounts in the cell free extracts were quantified using SDS-PAGE and staining by Coomassie Blue.
Mix A is a combination of the substrate and HRP enzyme. Solutions were prepared for each substrate concentration to be assayed using reaction buffer. The solutions were two times the final substrate concentration and 0.2 mg/mL for the HRP solution.
Mix B is a dye mixture. To 5 mL of reaction buffer was added 120 μL of TBHBA solution and 400 μL of 4-AAP solution.
Mix C is an enzyme mixture. A 0.02 mg/mL solution of DAAO in reaction buffer was prepared. […]
The enzyme kinetics were measured as described above, plotted on a Michaelis Menten graph, and used to calculate Vmax.

These results are taken from patent US12234254B2, “Methods for producing crystalline L-glufosinate ammonium monohydrate” (BASF SE, priority 2019, dated 2025).

For the molecule `CP(=O)(O)CC[C@@H](N)C(=O)O` [D-glufosinate], in the data set with plants, the herbicidal activity result is given as “essentially no herbicidal activity”.

On to `CP(=O)(O)CC[C@H](N)C(=O)O.N.O` [Form A, L-glufosinate ammonium monohydrate], for which, in data set [1], the hygroscopicity entry is listed as “low hygroscopicity”.

Turning to `CP(=O)(O)CC[C@H](N)C(=O)O.N.O` [L-glufosinate ammonium monohydrate], the Dv90 particle size in data set [2] (Example 9, crystallized with 0.4 M ammonium hydroxide) is given as 70.7 microns; in data set [2] (Example 10, crystallized without ammonium hydroxide) it was 102 microns.

As to `CP(=O)(O)CC[C@H](N)C(=O)O` [L-glufosinate], the “inhibition of glutamine synthetase enzyme” value in data set [3] was “inhibits”.

`CP(=O)(O)CC[C@H](N)C(=O)O` [amorphous L-glufosinate solids, L-glufosinate]: the hygroscopicity entry in data set [1] is “particularly hygroscopic”.

On to `CP(=O)(O)CC[C@H](N)C(=O)O` [crystalline L-glufosinate P free acid, L-glufosinate P free acid], for which the hygroscopicity entry in data set [1] is “significantly lower”.

B1: Mut846: variant DAAO enzyme, sequence provided in SEQ ID NO: 2 (protein)
chain: MASPSNKQIVVLGAGVIGLTTAVKIQEQRGYQVTIIAEILPSDPKSIRYTSHWAGAHHVSLAGEDKLQARVDQETFGVMWEMSAPGGEAEGCFLRQKQVEYYCDKQADPHPLEHMPDFRRLDENSLIPNTVAGIGFTTLTIDTPIYLNYLLSRFLARGGAIVRGSVQHISQVVDGGARVFTGSKSAGVPVDAVIVCAGIGARFLGGVEDKDVYPIRGQTVLLRAPWIRFGRTMSSKDGLYTYIIPRRSGDVIVGGIKVPNDWYPTPRPETTQDILKRGLALCPELAPQSIRDQREPTVDDLRPLVIEEGCGLRPGRKGGIRLEVEWYAKTDGQAPKVPIVHNYGHGGAGFQASWGSASVALELLEKALAQARLAM
modifications: Rhodosporidium toruloides
As usually defined, the Vmax is the top rate of the reaction or transport when substrate is in excess. As for B1, the maximum rate (Vmax) in data set [4] worked out at 5.54 µmol/min/mg.
